Among the data in ChEMBL document CHEMBL1770082, “Probing the isoprenylcysteine carboxyl methyltransferase (Icmt) binding pocket: sulfonamide modified farnesyl cysteine (SMFC) analogs as Icmt inhibitors” (Bioorg Med Chem Lett, 2011) are IC50 and inhibition values, retold here.

The structures appear in SMILES notation.

For one assay, the target named is T1, Protein-S-isoprenylcysteine O-methyltransferase (Homo sapiens, UniProt O60725). In words: Inhibition of human ICMT incubated with N-Acetyl-S-farnesyl-L-cysteine substrate for 5 mins followed by addition of [14C]-SAM measured after 30 mins by liquid scintillation counting.
T1 sequence (O60725 whole entry): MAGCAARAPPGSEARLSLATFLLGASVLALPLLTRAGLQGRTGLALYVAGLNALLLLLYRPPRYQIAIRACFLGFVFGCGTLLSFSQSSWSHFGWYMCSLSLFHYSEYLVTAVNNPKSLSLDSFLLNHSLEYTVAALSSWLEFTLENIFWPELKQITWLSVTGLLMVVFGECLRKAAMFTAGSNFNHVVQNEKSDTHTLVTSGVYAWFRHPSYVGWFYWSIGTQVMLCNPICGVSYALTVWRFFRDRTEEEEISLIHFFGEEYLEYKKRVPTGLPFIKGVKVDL
Conditions: not given
For the compound `CC(C)=CCC/C(C)=C/CC/C(C)=C/CSC[C@H](NS(=O)(=O)c1ccccc1Oc1ccccc1)C(=O)O`, half-maximal inhibition (IC50) required 18.4 µM.
Compound `CC(C)=CCC/C(C)=C/CC/C(C)=C/CSC[C@H](NS(=O)(=O)c1ccc(F)cc1)C(=O)O` yielded an IC50 of 15.5 µM.
In the case of `CC(C)=CCC/C(C)=C/CC/C(C)=C/CSC[C@H](NS(=O)(=O)c1cccc2c(N(C)C)cccc12)C(=O)O`, the IC50 came out at 11.6 µM.
Still for that read-out and setting: in the case of `CC(C)=CCC/C(C)=C/CC/C(C)=C/CSC[C@H](NS(=O)(=O)c1ccccc1)C(=O)O` it was 17 µM.
Still for that read-out and setting: in the case of `CC(C)=CCC/C(C)=C/CC/C(C)=C/CSC[C@H](NS(=O)(=O)c1cccs1)C(=O)O` it was 8.8 µM; in that of `CC(C)=CCC/C(C)=C/CC/C(C)=C/CSC[C@H](NS(=O)(=O)c1cccc([N+](=O)[O-])c1)C(=O)O`, 13.4 µM.

The target of a further assay is T1, Protein-S-isoprenylcysteine O-methyltransferase. In words: Inhibition of human ICMT at 10uM incubated with N-Acetyl-S-farnesyl-L-cysteine substrate for 5 mins followed by addition of [14C]-SAM measured after 30 mins by liquid scintillation counting.
Conditions: not given
On to `COC(=O)[C@H](CSC/C=C(\C)CC/C=C(\C)CCC=C(C)C)NS(=O)(=O)c1cccs1`, for which the inhibition stood at 10%.

The next assay has the same target. The settings on record: at 10 µM.
Description: Inhibition of human ICMT at 10 uM incubated with N-Acetyl-S-farnesyl-L-cysteine substrate for 5 mins followed by addition of [14C]-SAM measured after 30 mins by liquid scintillation counting
`CCCCCCCCCCCSC[C@H](NS(=O)(=O)c1cccc([N+](=O)[O-])c1)C(=O)O`: the inhibition came out at 32%.
Still for that read-out and setting: in the case of `CC(C)=CCC/C(C)=C/CC/C(C)=C/CSC[C@H](NS(=O)(=O)c1ccccc1[N+](=O)[O-])C(=O)O` it was 45%; in that of `CC(C)=CCC/C(C)=C/CC/C(C)=C/CSC[C@H](NS(=O)(=O)c1ccc(F)cc1F)C(=O)O`, 45%.
Regarding `CC(C)=CCC/C(C)=C/CC/C(C)=C/CSC[C@H](NS(=O)(=O)c1c(F)c(F)c(F)c(F)c1F)C(=O)O`, the inhibition is below 45%.
The same measure, in the same setting: in the case of `COc1ccc(S(=O)(=O)N[C@@H](CSC/C=C(\C)CC/C=C(\C)CCC=C(C)C)C(=O)O)c([N+](=O)[O-])c1` it was below 45%; in that of `CC(C)=CCC/C(C)=C/CC/C(C)=C/CSC[C@H](NS(=O)(=O)c1ccccc1C(F)(F)F)C(=O)O`, below 45%.
As for `CC(C)=CCC/C(C)=C/CC/C(C)=C/CSC[C@H](NS(=O)(=O)c1ccc(C)cc1)C(=O)O`, the inhibition was below 45%.
Take `CC(C)=CCC/C(C)=C/CSC[C@H](NS(=O)(=O)c1ccc(F)cc1)C(=O)O`: the inhibition was found to be 23%.
The same measure, in the same setting: in the case of `CC(C)=CCC/C(C)=C/CC/C(C)=C/CSC[C@H](NS(=O)(=O)c1ccc(Cl)cc1)C(=O)O` it was 45%; in that of `CC(C)=CCC/C(C)=C/CC/C(C)=C/CSC[C@H](NS(=O)(=O)c1ccc(-c2ccccc2)cc1)C(=O)O`, below 45%; in that of `CC(C)=CCC/C(C)=C/CC/C(C)=C/CSC[C@H](NS(=O)(=O)c1ccc(Br)s1)C(=O)O`, below 45%.
The same measure, in the same setting: in the case of `CC(=O)Nc1ccc(S(=O)(=O)N[C@@H](CSC/C=C(\C)CC/C=C(\C)CCC=C(C)C)C(=O)O)cc1` it was below 45%; in that of `CC(C)=CCC/C(C)=C/CSC[C@H](NS(=O)(=O)c1ccccc1)C(=O)O`, 22%.
Compound `COc1ccc(S(=O)(=O)N[C@@H](CSC/C=C(\C)CC/C=C(\C)CCC=C(C)C)C(=O)O)cc1` yielded an inhibition below 45%.
The same measure, in the same setting: in the case of `CC(C)=CCC/C(C)=C/CC/C(C)=C/CSC[C@H](NS(=O)(=O)c1ccccc1Oc1ccccc1)C(=O)O` it was 55%.
`CC(C)=CCC/C(C)=C/CC/C(C)=C/CSC[C@H](NS(=O)(=O)c1ccc(C(C)C)cc1)C(=O)O`: the inhibition is below 45%.
Still for that read-out and setting: in the case of `COc1ccc(S(=O)(=O)N[C@@H](CSC/C=C(\C)CC/C=C(\C)CCC=C(C)C)C(=O)O)cc1OC` it was above 55%.
The compound `CC(C)=CCC/C(C)=C/CC/C(C)=C/CSC[C@H](NS(=O)(=O)Cc1ccccc1)C(=O)O` had an inhibition below 45%.
The same measure, in the same setting: in the case of `C=Cc1ccc(S(=O)(=O)N[C@@H](CSC/C=C(\C)CC/C=C(\C)CCC=C(C)C)C(=O)O)cc1` it was below 45%; in that of `CCCc1ccc(S(=O)(=O)N[C@@H](CSC/C=C(\C)CC/C=C(\C)CCC=C(C)C)C(=O)O)cc1`, below 45%; in that of `CCCCCCSC[C@H](NS(=O)(=O)c1cccc([N+](=O)[O-])c1)C(=O)O`, 17%.
For the compound `CC(C)=CCC/C(C)=C/CC/C(C)=C/CSC[C@H](NS(=O)(=O)c1c(C(C)C)cc(C(C)C)cc1C(C)C)C(=O)O`, the inhibition is below 45%.
On the same count and under the same terms, in the case of `CC(C)=CCC/C(C)=C/CC/C(C)=C/CSC[C@H](NS(=O)(=O)c1ccc(F)cc1)C(=O)O` it was above 55%.
Same read-out and setting: in the case of `CC(C)=CCC/C(C)=C/CC/C(C)=C/CSC[C@H](NS(=O)(=O)c1ccc2ccccc2c1)C(=O)O` it was 45%; in that of `CC(C)=CCC/C(C)=C/CC/C(C)=C/CSC[C@H](NS(=O)(=O)c1ccc([N+](=O)[O-])cc1)C(=O)O`, above 55%.
The same measure, in the same setting: in the case of `CC(C)=CCC/C(C)=C/CC/C(C)=C/CSC[C@H](NS(=O)(=O)c1cccc2c(N(C)C)cccc12)C(=O)O` it was 45%; in that of `CC(C)=CCC/C(C)=C/CC/C(C)=C/CSC[C@H](NS(=O)(=O)c1ccccc1)C(=O)O`, 45%.
Turning to `CC(C)=CCC/C(C)=C/CC/C(C)=C/CSC[C@H](NS(=O)(=O)C[C@@]12CC[C@H](CC1=O)C2(C)C)C(=O)O`, the inhibition is 45%.
On the same count and under the same terms, in the case of `CCCCCCCCS(=O)(=O)N[C@@H](CSC/C=C(\C)CC/C=C(\C)CCC=C(C)C)C(=O)O` it was below 45%; in that of `CC(C)=CCC/C(C)=C/CC/C(C)=C/CSC[C@H](NS(=O)(=O)c1cccc2cccnc12)C(=O)O`, 45%.
On the same count and under the same terms, in the case of `COc1ccc(S(=O)(=O)N[C@@H](CSC/C=C(\C)CC/C=C(\C)CCC=C(C)C)C(=O)O)c(OC)c1` it was 45%; in that of `CC(C)=CCC/C(C)=C/CC/C(C)=C/CSC[C@H](NS(=O)(=O)c1c(C)c(C)c(C)c(C)c1C)C(=O)O`, below 45%.
Compound `CC(=O)c1ccc(S(=O)(=O)N[C@@H](CSC/C=C(\C)CC/C=C(\C)CCC=C(C)C)C(=O)O)cc1` came in with an inhibition of 45%.
On to `CC(C)=CCC/C(C)=C/CC/C(C)=C/CSC[C@H](NS(=O)(=O)c1cccs1)C(=O)O`, for which the inhibition is above 55%.
Take `CC(C)=CCC/C(C)=C/CC/C(C)=C/CSC[C@H](NS(=O)(=O)c1ccccc1Br)C(=O)O`: the inhibition is below 45%.
Take `CC(C)=CCC/C(C)=C/CC/C(C)=C/CSC[C@H](NS(=O)(=O)c1ccc(Cl)cc1F)C(=O)O`: the inhibition is below 45%.
Same read-out and setting: in the case of `CC(C)=CCC/C(C)=C/CC/C(C)=C/CSC[C@H](NS(=O)(=O)c1cccc([N+](=O)[O-])c1)C(=O)O` it was above 55%; in that of `CC(C)=CCC/C(C)=C/CSC[C@H](NS(=O)(=O)c1cccc([N+](=O)[O-])c1)C(=O)O`, 18%.
Turning to `CC(C)=CCC/C(C)=C/CC/C(C)=C/CSC[C@H](NS(=O)(=O)c1ccc(C(C)(C)C)cc1)C(=O)O`, the inhibition was determined as 45%.

A word on the IC50: it is the midpoint of a concentration-inhibition curve. Broadly, the inhibition is the share of the control response that was lost under treatment. High values mean a response far below the control, low ones a response near the control.
